Test results as given in patent publication US20240067693A1, “POLYPEPTIDES AND USES THEREOF” (MEDIMMUNE LIMITED, priority 2020, published 2024).
Numbered stars: 1 amine (or outer) side, 2 acyl side, 3 side chain; on linkers, the order of the positions; unused ones are H or OH. Bridge positions count the residues as written; N and C are the ends. Square brackets hold non-standard residues; d marks the D form. Side chains are listed from the residue outwards. Peptide text beside a SMILES is read from it. * marks the point of attachment. C18 diacid = O=C(O)CCCCCCCCCCCCCCCCC(=O)*; γGlu = O=C(O)[C@H](CCC(=O)[*:2])N[*:1]; Aib = CC(C)(N)C(=O)O

Key:
[1] = biological target: T1, human amylin receptor (calcitonin receptor co-expressed with receptor activity modifying protein, RAMP3) (hAMYR3) (Homo sapiens, UniProt O60896+P30988); assay: cAMP production in 1321N1 cells with stable recombinant expression of human amylin receptor (hAMYR3); type: cell-based; details: for Ratio (selectivity hAMYR vs hCTR, ratio of EC50 values at the two receptors): EC50 hCTR / EC50 hAMYR3; for EC50: cAMP, 1321N1 cells, assay buffer with 0.1% BSA, read-out: EC50 (pM) hAMYR3
T1 construct: expressed in transfected cells
T1 sequence (P30988 25-474): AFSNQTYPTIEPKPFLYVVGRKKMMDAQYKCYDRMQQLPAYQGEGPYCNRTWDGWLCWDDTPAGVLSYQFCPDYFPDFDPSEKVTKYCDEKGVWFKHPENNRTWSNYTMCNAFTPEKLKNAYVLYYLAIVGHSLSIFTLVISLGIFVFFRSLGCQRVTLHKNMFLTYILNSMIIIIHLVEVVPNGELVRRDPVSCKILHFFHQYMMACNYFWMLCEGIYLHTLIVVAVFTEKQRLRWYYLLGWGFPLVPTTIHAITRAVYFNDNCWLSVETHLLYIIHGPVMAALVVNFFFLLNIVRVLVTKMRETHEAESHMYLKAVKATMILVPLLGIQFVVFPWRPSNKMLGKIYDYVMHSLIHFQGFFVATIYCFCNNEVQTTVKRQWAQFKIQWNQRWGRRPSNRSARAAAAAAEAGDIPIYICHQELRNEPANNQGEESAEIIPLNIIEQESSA
T1 sequence (O60896 24-148 partner): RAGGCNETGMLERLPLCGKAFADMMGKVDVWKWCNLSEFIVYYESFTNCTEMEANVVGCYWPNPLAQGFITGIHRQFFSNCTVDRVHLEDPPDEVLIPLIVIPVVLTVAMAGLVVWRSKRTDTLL
Method in brief: (§1)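 Receptor-expressing cells (human receptors in 1321N1, rat receptors in HEK) incubated 30 min at room temperature with peptide in HBSS/HEPES pH 7.4, 0.1% BSA, 0.5 mM IBMX. cAMP read by HTRF; EC50 from 4-parameter fit as % of maximal amylin or calcitonin response.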

[2] = biological target: T2, human calcitonin receptor (hCTR) (Homo sapiens, UniProt P30988); assay: cAMP production in 1321N1 cells with stable recombinant expression of human calcitonin receptor (hCTR); type: cell-based; details: cAMP, 1321N1 cells, assay buffer with 0.1% BSA; read-out: EC50 (pM) hCTR
T2 construct: expressed in transfected cells
T2 sequence (P30988 25-474): T1 sequence (P30988 25-474)
Method in brief: as §1

Compound	Ratio (selectivity hAMYR vs hCTR, ratio of EC50 values at the two receptors) [1]	EC50 [1]	EC50 [2]
CC[C@H](C)[C@H](NC(=O)[C@@H]1CCCN1C(=O)CNC(=O)[C@H](Cc1ccccc1)NC(=O)[C@H](CC(N)=O)NC(=O)[C@@H]1CCCN1C(=O)[C@H](CO)NC(=O)[C@H](CO)NC(=O)[C@H](Cc1c[nH]cn1)NC(=O)C(C)(C)NC(=O)[C@H](CC(C)C)NC(=O)[C@H](Cc1ccccc1)NC(=O)[C@H](CC(N)=O)NC(=O)[C@H](C)NC(=O)[C@H](CC(C)C)NC(=O)[C@H](CCCNC(=N)N)NC(=O)[C@H](CCC(N)=O)NC(=O)[C@@H](NC(=O)[C@H](C)NC(=O)[C@@H]1CSSC[C@H](NC(=O)[C@H](CCCCN)NC(=O)[C@@H](N)CCCCNC(=O)CC[C@H](NC(=O)CCCCCCCCCCCCCCCCC(=O)O)C(=O)O)C(=O)N[C@@H](CC(N)=O)C(=O)N[C@@H]([C@@H](C)O)C(=O)N[C@@H](C)C(=O)N[C@@H]([C@@H](C)O)C(=O)N1)[C@@H](C)O)C(=O)N[C@@H](CC(C)C)C(=O)N1CCC[C@H]1C(=O)N1CCC[C@H]1C(=O)N[C@H](C(=O)N[C@@H](CC(N)=O)C(=O)N[C@H](C(=O)NCC(=O)N[C@@H](CO)C(=O)N[C@@H](CCC(=O)O)C(=O)N[C@H](C(=O)N[C@@H](Cc1ccc(O)cc1)C(N)=O)[C@@H](C)O)C(C)C)[C@@H](C)O [Peptide 139] (H-K([γGlu-C18 diacid])KCNTATCATQRLANFL[Aib]HSSPNFGPILPPTNVGSETY-NH2; disulfide 3-8; N-terminus assumed)	3.7	285 pM	1040 pM
CC[C@H](C)[C@H](NC(=O)[C@@H]1CCCN1C(=O)CNC(=O)[C@H](Cc1ccccc1)NC(=O)[C@H](CC(N)=O)NC(=O)[C@H](CC(N)=O)NC(=O)[C@H](CO)NC(=O)[C@H](CO)NC(=O)[C@H](Cc1c[nH]cn1)NC(=O)C(C)(C)NC(=O)[C@H](CC(C)C)NC(=O)[C@H](Cc1ccccc1)NC(=O)[C@H](CC(N)=O)NC(=O)[C@H](C)NC(=O)[C@H](CC(C)C)NC(=O)[C@H](CCCNC(=N)N)NC(=O)[C@H](CCC(N)=O)NC(=O)[C@@H](NC(=O)[C@H](C)NC(=O)[C@@H]1CSSC[C@H](NC(=O)[C@H](CCCCN)NC(=O)[C@@H](N)CCCCNC(=O)CC[C@H](NC(=O)CCCCCCCCCCCCCCCCC(=O)O)C(=O)O)C(=O)N[C@@H](CC(N)=O)C(=O)N[C@@H]([C@@H](C)O)C(=O)N[C@@H](C)C(=O)N[C@@H]([C@@H](C)O)C(=O)N1)[C@@H](C)O)C(=O)N[C@@H](CC(C)C)C(=O)N1CCC[C@H]1C(=O)N1CCC[C@H]1C(=O)N[C@H](C(=O)N[C@@H](CC(N)=O)C(=O)N[C@H](C(=O)NCC(=O)N[C@@H](CO)C(=O)N[C@@H](CCCNC(=N)N)C(=O)N[C@H](C(=O)N[C@@H](Cc1ccc(O)cc1)C(N)=O)[C@@H](C)O)C(C)C)[C@@H](C)O [Peptide 141] (H-K([γGlu-C18 diacid])KCNTATCATQRLANFL[Aib]HSSNNFGPILPPTNVGSRTY-NH2; disulfide 3-8; N-terminus assumed)	9.5	414 pM	3950 pM
CC[C@H](C)[C@H](NC(=O)[C@@H]1CCCN1C(=O)CNC(=O)[C@H](Cc1ccccc1)NC(=O)[C@H](CC(N)=O)NC(=O)[C@H](CC(N)=O)NC(=O)[C@H](CO)NC(=O)[C@H](CO)NC(=O)[C@H](Cc1c[nH]cn1)NC(=O)C(C)(C)NC(=O)[C@H](CC(C)C)NC(=O)[C@H](Cc1ccccc1)NC(=O)[C@H](CC(N)=O)NC(=O)[C@H](C)NC(=O)[C@H](CC(C)C)NC(=O)[C@H](CCCNC(=N)N)NC(=O)[C@H](CCC(N)=O)NC(=O)[C@@H](NC(=O)[C@H](C)NC(=O)[C@@H]1CSSC[C@H](NC(=O)[C@H](CCCCN)NC(=O)[C@@H](N)CCCCNC(=O)CC[C@H](NC(=O)CCCCCCCCCCCCCCCCC(=O)O)C(=O)O)C(=O)N[C@@H](CC(N)=O)C(=O)N[C@@H]([C@@H](C)O)C(=O)N[C@@H](C)C(=O)N[C@@H]([C@@H](C)O)C(=O)N1)[C@@H](C)O)C(=O)N[C@@H](CC(C)C)C(=O)N1CCC[C@H]1C(=O)N1CCC[C@H]1C(=O)N[C@H](C(=O)N[C@@H](CC(N)=O)C(=O)N[C@H](C(=O)NCC(=O)N[C@@H](CO)C(=O)N[C@@H](CCC(=O)O)C(=O)N[C@H](C(=O)N[C@@H](Cc1ccc(O)cc1)C(N)=O)[C@@H](C)O)C(C)C)[C@@H](C)O [Peptide 142] (H-K([γGlu-C18 diacid])KCNTATCATQRLANFL[Aib]HSSNNFGPILPPTNVGSETY-NH2; disulfide 3-8; N-terminus assumed)	3.1	730 pM	2270 pM
CC[C@H](C)[C@H](NC(=O)[C@@H]1CCCN1C(=O)CNC(=O)[C@H](Cc1ccccc1)NC(=O)[C@H](CC(N)=O)NC(=O)[C@H](CC(N)=O)NC(=O)[C@H](CO)NC(=O)[C@H](CO)NC(=O)[C@H](Cc1c[nH]cn1)NC(=O)C(C)(C)NC(=O)[C@H](CC(C)C)NC(=O)[C@H](Cc1ccccc1)NC(=O)[C@H](CC(N)=O)NC(=O)[C@H](C)NC(=O)[C@H](CC(C)C)NC(=O)[C@H](CCCNC(=N)N)NC(=O)[C@H](CCC(N)=O)NC(=O)[C@@H](NC(=O)[C@H](C)NC(=O)[C@@H]1CSSC[C@H](NC(=O)[C@H](CCCCN)NC(=O)CNC(=O)CNC(=O)[C@@H](N)CCCCNC(=O)CC[C@H](NC(=O)CCCCCCCCCCCCCCCCC(=O)O)C(=O)O)C(=O)N[C@@H](CC(N)=O)C(=O)N[C@@H]([C@@H](C)O)C(=O)N[C@@H](C)C(=O)N[C@@H]([C@@H](C)O)C(=O)N1)[C@@H](C)O)C(=O)N[C@@H](CC(C)C)C(=O)N1CCC[C@H]1C(=O)N1CCC[C@H]1C(=O)N[C@H](C(=O)N[C@@H](CC(N)=O)C(=O)N[C@H](C(=O)NCC(=O)N[C@@H](CO)C(=O)N[C@@H](CC(N)=O)C(=O)N[C@H](C(=O)N[C@@H](Cc1ccc(O)cc1)C(N)=O)[C@@H](C)O)C(C)C)[C@@H](C)O [Peptide 143] (H-K([γGlu-C18 diacid])GGKCNTATCATQRLANFL[Aib]HSSNNFGPILPPTNVGSNTY-NH2; disulfide 5-10; N-terminus assumed)	11.7	592 pM	6940 pM
CC[C@H](C)[C@H](NC(=O)[C@@H]1CCCN1C(=O)CNC(=O)[C@H](Cc1ccccc1)NC(=O)[C@H](CC(N)=O)NC(=O)[C@H](CC(N)=O)NC(=O)[C@H](CO)NC(=O)[C@H](CO)NC(=O)[C@H](Cc1c[nH]cn1)NC(=O)C(C)(C)NC(=O)[C@H](CC(C)C)NC(=O)[C@H](Cc1ccccc1)NC(=O)[C@H](Cc1c[nH]cn1)NC(=O)[C@H](C)NC(=O)[C@H](CC(C)C)NC(=O)[C@H](CCCNC(=N)N)NC(=O)[C@H](CCC(N)=O)NC(=O)[C@@H](NC(=O)[C@H](C)NC(=O)[C@@H]1CSSC[C@H](NC(=O)[C@@H](N)CCCCNC(=O)CC[C@H](NC(=O)CCCCCCCCCCCCCCCCC(=O)O)C(=O)O)C(=O)N[C@@H](CC(N)=O)C(=O)N[C@@H]([C@@H](C)O)C(=O)N[C@@H](C)C(=O)N[C@@H]([C@@H](C)O)C(=O)N1)[C@@H](C)O)C(=O)N[C@@H](CC(C)C)C(=O)N1CCC[C@H]1C(=O)N1CCC[C@H]1C(=O)N[C@H](C(=O)N[C@@H](CC(N)=O)C(=O)N[C@H](C(=O)NCC(=O)N[C@@H](CO)C(=O)N[C@@H](CC(N)=O)C(=O)N[C@H](C(=O)N[C@@H](Cc1ccc(O)cc1)C(N)=O)[C@@H](C)O)C(C)C)[C@@H](C)O [Peptide 144] (H-K([γGlu-C18 diacid])CNTATCATQRLAHFL[Aib]HSSNNFGPILPPTNVGSNTY-NH2; disulfide 2-7; N-terminus assumed)	5.3	138 pM	725 pM
CC[C@H](C)[C@H](NC(=O)[C@@H]1CCCN1C(=O)CNC(=O)[C@H](Cc1ccccc1)NC(=O)[C@H](CC(N)=O)NC(=O)[C@H](CC(N)=O)NC(=O)[C@H](CO)NC(=O)[C@H](CO)NC(=O)[C@H](Cc1c[nH]cn1)NC(=O)C(C)(C)NC(=O)[C@H](CC(C)C)NC(=O)[C@H](Cc1ccccc1)NC(=O)[C@H](CC(N)=O)NC(=O)[C@H](C)NC(=O)[C@H](CC(C)C)NC(=O)[C@H](CCCNC(=N)N)NC(=O)[C@H](CCC(N)=O)NC(=O)[C@@H](NC(=O)[C@H](C)NC(=O)[C@@H]1CSSC[C@H](NC(=O)[C@H](CCCCN)NC(=O)[C@@H](N)CCCCNC(=O)CC[C@H](NC(=O)CCCCCCCCCCCCCCCCC(=O)O)C(=O)O)C(=O)N[C@@H](CC(N)=O)C(=O)N[C@@H]([C@@H](C)O)C(=O)N[C@@H](C)C(=O)N[C@@H]([C@@H](C)O)C(=O)N1)[C@@H](C)O)C(=O)N[C@@H](CC(C)C)C(=O)N1CCC[C@H]1C(=O)N1CCC[C@H]1C(=O)N[C@H](C(=O)N[C@@H](CC(N)=O)C(=O)N[C@H](C(=O)NCC(=O)N[C@@H](Cc1c[nH]cn1)C(=O)N[C@@H](CC(N)=O)C(=O)N[C@H](C(=O)N[C@@H](Cc1ccc(O)cc1)C(N)=O)[C@@H](C)O)C(C)C)[C@@H](C)O [Peptide 145] (H-K([γGlu-C18 diacid])KCNTATCATQRLANFL[Aib]HSSNNFGPILPPTNVGHNTY-NH2; disulfide 3-8; N-terminus assumed)	4.5	417 pM	1880 pM
